# Test results published in PubChem BioAssay AID314 (DTP/NCI, 2004).
# Values joined by “and” are separate entries in the source; they are usually repeats but may differ in a detail not shown here. Equal values may be shown once. Toxic doses and inconclusive results are not listed. Starred links: 1 amine or outer side, 2 acyl side, 3 side chain; linkers in the order of their positions; H or OH if unused. Positions of bridges follow the written chain, without caps; N, C: chain ends. Non-standard residues stand in square brackets, D forms with d. Residues, ends and D or L forms follow the SMILES beside them. Chains are numbered I, II in the order given. Actinocin(9to1) = Cc1c2oc3c(C)ccc(C(=O)[*:1])c3nc-2c(C(=O)[*:2])c(N)c1=O; aThr = C[C@H](O)[C@H](N)C(=O)O; NMeV = CN[C@H](C(=O)O)C(C)C; Sar = CNCC(=O)O
# Tested on: DBA/2 mice, P1534 leukemia ip, survival T/C
# Experiment: NCI In Vivo Anticancer Drug Screen. Data for tumor model P1534 Leukemia (intraperitoneal) in DBA/2 mice
# Conditions: endpoint: mean survival time, higher = longer survival
# Protocol: The antitumor activity of compounds was measured in mice bearing transplantable tumors. Survival or tumor size were measured and the results are expressed as the measurement made in the treated group (T) divided by the measurement made in the vehicle treated control group (C). The tumor model used in this assay is P1534 Leukemia (intraperitoneal) in DBA/2 mice
# [1] = dose: 50.0 mg/kg/injection, schedule: Q01DX010 (ip), vehicle: saline
# [2] = dose: 100.0 mg/kg/injection, schedule: Q01DX010 (ip), vehicle: saline
# [3] = dose: 200.0 mg/kg/injection, schedule: Q01DX010 (ip), vehicle: saline
# [4] = dose: 32.0 mg/kg/injection, schedule: Q01DX010 (ip), vehicle: saline
# [5] = dose: 64.0 mg/kg/injection, schedule: Q01DX010 (ip), vehicle: saline
# [6] = dose: 1.0 mg/kg/injection, schedule: Q01DX010 (ip), vehicle: saline
# [7] = dose: 4.0 mg/kg/injection, schedule: Q01DX010 (ip), vehicle: saline
# [8] = dose: 1.25 mg/kg/injection, schedule: Q01DX010 (ip), vehicle: saline
# [9] = dose: 2.5 mg/kg/injection, schedule: Q01DX010 (ip), vehicle: saline
# [10] = dose: 5.0 mg/kg/injection, schedule: Q01DX010 (ip), vehicle: saline
# [11] = dose: 10.0 mg/kg/injection, schedule: Q01DX010 (ip), vehicle: saline
# [12] = dose: 20.0 mg/kg/injection, schedule: Q01DX010 (ip), vehicle: saline
# [13] = dose: 40.0 mg/kg/injection, schedule: Q01DX010 (ip), vehicle: saline
# [14] = dose: 12.5 mg/kg/injection, schedule: Q01DX010 (sc), vehicle: steriod suspending solution
# [15] = dose: 0.25 mg/kg/injection, schedule: Q01DX010 (ip), vehicle: saline
# [16] = dose: 2.0 mg/kg/injection, schedule: Q01DX010 (ip), vehicle: saline
# [17] = dose: 31.3 mg/kg/injection, schedule: Q01DX010 (ip), vehicle: saline
# [18] = dose: 62.5 mg/kg/injection, schedule: Q01DX010 (ip), vehicle: saline
# [19] = dose: 125.0 mg/kg/injection, schedule: Q01DX010 (ip), vehicle: saline
# [20] = dose: 0.5 mg/kg/injection, schedule: Q01DX010 (ip), vehicle: saline
# [21] = dose: 250.0 mg/kg/injection, schedule: Q01DX010 (ip), vehicle: saline
# [22] = dose: 500.0 mg/kg/injection, schedule: Q01DX010 (ip), vehicle: saline
# [23] = dose: 15.0 mg/kg/injection, schedule: Q01DX010 (ip), vehicle: saline
smiles,measurement,setting,value
[N-]=[N+]=CC(=O)NCC(=O)NN,T/C,[1],108 % of control
same,T/C,[2],100 % of control
same,T/C,[3],95 % of control
same,T/C,"dose: 400.0 mg/kg/injection, schedule: Q01DX010 (ip), vehicle: saline",91 % of control
NCCCCCCNC(=O)CCCCC(=O)NCCCCCCN,T/C,"dose: 8.0 mg/kg/injection, schedule: Q01DX010 (ip), vehicle: saline",100 % of control
same,T/C,"dose: 16.0 mg/kg/injection, schedule: Q01DX010 (ip), vehicle: saline",100 % of control
same,T/C,[4],95 % of control
same,T/C,[5],95 % of control
CCCCn1cnc2c(=S)nc[nH]c21,T/C,[4],96 % of control
same,T/C,[5],92 % of control and 96 % of control
same,T/C,"dose: 128.0 mg/kg/injection, schedule: Q01DX010 (ip), vehicle: saline",96 % of control and 100 % of control
COC(=O)c1[nH]c(=O)[nH]c(=O)c1F,T/C,[6],103 % of control
same,T/C,[7],93 % of control
S=P(N1CCOCC1)(N1CC1)N1CC1,T/C,[8],100 % of control and 103 % of control
same,T/C,[9],92 % of control and 100 % of control
N=C(N)c1ccc(Nc2ccc(C(=N)N)cc2)cc1,T/C,"dose: 6.0 mg/kg/injection, schedule: Q01DX010 (ip), vehicle: saline",96 % of control
same,T/C,"dose: 12.0 mg/kg/injection, schedule: Q01DX010 (ip), vehicle: saline",89 % of control and 100 % of control
"Cc1c2oc3c(C)ccc(C(=O)N[C@@H]4C(=O)N[C@H](C(C)C)C(=O)N5CCC[C@H]5C(=O)N(C)CC(=O)N(C)[C@@H](C(C)C)C(=O)O[C@H]4C)c3nc-2c(C(=O)N[C@@H]2C(=O)N[C@H](C(C)C)C(=O)N3CCC[C@H]3C(=O)N(C)CC(=O)N(C)[C@@H](C(C)C)C(=O)O[C@H]2C)c(N)c1=O (I: [aThr][dV]P[Sar][NMeV] / II: [aThr][dV]P[Sar][NMeV]; ester I:1-I:C, II:1-II:C; linker I:N-II:N via Actinocin(9to1))",T/C,"dose: 0.02 mg/kg/injection, schedule: Q01DX010 (ip), vehicle: other",93 % of control
same,T/C,"dose: 0.03 mg/kg/injection, schedule: Q01DX010 (ip), vehicle: other",104 % of control
same,T/C,"dose: 0.03 mg/kg/injection, schedule: Q01DX010 (ip), vehicle: saline",97 % of control
same,T/C,"dose: 0.06 mg/kg/injection, schedule: Q01DX010 (ip), vehicle: other",103 % of control
same,T/C,"dose: 0.06 mg/kg/injection, schedule: Q01DX010 (ip), vehicle: saline",100 % of control
Cn1c(N)nc2nc[nH]c2c1=S,T/C,[10],100 % of control
same,T/C,[11],100 % of control
same,T/C,[12],100 % of control
same,T/C,[13],100 % of control
CN(Cc1cnc2nc(N)nc(N)c2n1)c1c(Cl)cc(C(=O)NC(CCC(=O)O)C(=O)O)cc1Cl (stereo not given),T/C,[12],120 % of control
C[C@]12C[C@H](O)[C@H]3[C@@H](CCC4=CC(=O)CC[C@@]43C)[C@@H]1CC[C@@H]2C(=O)CO,T/C,[14],100 % of control
same,T/C,"dose: 25.0 mg/kg/injection, schedule: Q01DX010 (sc), vehicle: steriod suspending solution",100 % of control
same,T/C,"dose: 50.0 mg/kg/injection, schedule: Q01DX010 (sc), vehicle: steriod suspending solution",100 % of control
same,T/C,"dose: 100.0 mg/kg/injection, schedule: Q01DX010 (sc), vehicle: steriod suspending solution",100 % of control
CC[n+]1c(-c2ccccc2)c2cc(N)ccc2c2ccc(N)cc21,T/C,[10],113 % of control
same,T/C,[11],120 % of control
CN(C)c1nc(N(C)C)nc(N(C)C)n1,T/C,"dose: 9.4 mg/kg/injection, schedule: Q01DX010 (ip), vehicle: saline",103 % of control and 111 % of control
same,T/C,"dose: 150.0 mg/kg/injection, schedule: Q01DX010 (ip), vehicle: saline",103 % of control and 107 % of control
Nc1nc(=S)c2ncn(C3OC(CO)C(O)C3O)c2[nH]1 (stereo not given),T/C,[15],110 % of control
same,T/C,[6],96 % of control
same,T/C,[16],89 % of control
CCOC(=O)NP(=O)(N1CC1(C)C)N1CC1(C)C (stereo not given),T/C,[17],107 % of control
same,T/C,[18],92 % of control
same,T/C,[19],103 % of control
COC12C(COC(N)=O)C3=C(C(=O)C(C)=C(N)C3=O)N1CC1C2N1C (stereo not given),T/C,"dose: 2.5 mg/kg/injection, schedule: Q01DX010 (sc), vehicle: saline",108 % of control
same,T/C,"dose: 5.0 mg/kg/injection, schedule: Q01DX010 (sc), vehicle: saline",108 % of control
same,T/C,"dose: 10.0 mg/kg/injection, schedule: Q01DX010 (sc), vehicle: saline",100 % of control
N=C(N)SCc1c2ccccc2c(CSC(=N)N)c2ccccc12,T/C,[10],100 % of control
same,T/C,[11],96 % of control
CN1CCCC1c1cccnc1 (stereo not given),T/C,"dose: 0.13 mg/kg/injection, schedule: Q01DX010 (ip), vehicle: saline",100 % of control
same,T/C,[15],100 % of control
same,T/C,[20],100 % of control
same,T/C,[6],100 % of control
CC(C)(C)CC(C)(C)c1ccc(O)cc1,T/C,[18],100 % of control
same,T/C,[19],100 % of control
same,T/C,[21],107 % of control
same,T/C,[22],111 % of control
O=c1[nH]c(=O)n(C2CC(O)C(CO)O2)cc1I (stereo not given),T/C,[19],103 % of control and 107 % of control
same,T/C,[21],103 % of control and 110 % of control
same,T/C,[22],107 % of control and 114 % of control and 121 % of control
same,T/C,"dose: 1000.0 mg/kg/injection, schedule: Q01DX010 (ip), vehicle: saline",110 % of control
N=[N+]=CC(=O)OCC(N)C(=O)O (stereo not given),T/C,[20],94 % of control
same,T/C,[6],103 % of control and 120 % of control
same,T/C,[16],120 % of control and 123 % of control
same,T/C,[7],117 % of control
COc1cc2c3c(c4ccc(OC)c(OC)c4c2cc1OC)CN1CCC[C@@H]1C3,T/C,[9],88 % of control
same,T/C,[11],92 % of control and 107 % of control
same,T/C,[23],96 % of control and 121 % of control
O=c1cnn(C2OC(CO)C(O)C2O)c(=O)[nH]1 (stereo not given),T/C,[1],103 % of control and 117 % of control
same,T/C,[2],96 % of control and 113 % of control
same,T/C,[3],91 % of control and 108 % of control
S=P(N1CC1)(N1CC1)N1CC1,T/C,[15],91 % of control and 99 % of control
same,T/C,[20],94 % of control and 100 % of control
same,T/C,[6],95 % of control
same,T/C,[16],87 % of control and 89 % of control
CN(N=O)C(=O)NC(C=O)C(O)C(O)C(O)CO (stereo not given),T/C,[13],122 % of control
same,T/C,"dose: 90.0 mg/kg/injection, schedule: Q01DX010 (ip), vehicle: saline",100 % of control
same,T/C,"dose: 135.0 mg/kg/injection, schedule: Q01DX010 (ip), vehicle: saline",86 % of control
CC[C@]1(O)C[C@H]2CN(CCc3c([nH]c4ccccc34)[C@@](C(=O)OC)(c3cc4c(cc3OC)N(C=O)[C@H]3[C@@](O)(C(=O)OC)[C@H](OC(C)=O)[C@]5(CC)C=CCN6CC[C@]43[C@@H]65)C2)C1,T/C,"dose: 15.6 micrograms/kg/injection, schedule: Q01DX010 (ip), vehicle: saline",117 % of control
same,T/C,"dose: 31.3 micrograms/kg/injection, schedule: Q01DX010 (ip), vehicle: saline",114 % of control
CCOC(C)C(/C=N/NC(N)=S)=NNC(N)=S (stereo not given),T/C,[23],91 % of control
same,T/C,"dose: 30.0 mg/kg/injection, schedule: Q01DX010 (ip), vehicle: saline",100 % of control
same,T/C,"dose: 60.0 mg/kg/injection, schedule: Q01DX010 (ip), vehicle: saline",100 % of control
same,T/C,"dose: 120.0 mg/kg/injection, schedule: Q01DX010 (ip), vehicle: saline",95 % of control
C=C(C(=O)OC1CC2CCC(C1)N2C)c1ccccc1 (stereo not given),T/C,[10],100 % of control
CC(=O)O[C@]1(C(C)=O)CC[C@H]2[C@@H]3C[C@H](C)C4=CC(=O)C=C[C@]4(C)[C@@]3(F)[C@@H](O)C[C@@]21C,T/C,[14],88 % of control
O=C(O)c1[nH]c(=O)[nH]c(=O)c1F,T/C,[8],86 % of control
O=C(OCC1OC(n2cnc3c(=S)nc[nH]c32)C(OC(=O)c2ccccc2)C1OC(=O)c1ccccc1)c1ccccc1 (stereo not given),T/C,"dose: 7.8 mg/kg/injection, schedule: Q01DX010 (ip), vehicle: saline",87 % of control
same,T/C,"dose: 15.6 mg/kg/injection, schedule: Q01DX010 (ip), vehicle: saline",91 % of control
same,T/C,[17],87 % of control
same,T/C,[18],100 % of control
same,T/C,[19],91 % of control
same,T/C,[21],87 % of control
Nc1ncccc1C(=O)O,T/C,[18],89 % of control
Clc1ccc(C(c2ccccc2Cl)C(Cl)Cl)cc1 (stereo not given),T/C,"dose: 62.5 mg/kg/injection, schedule: Q01DX010 (sc), vehicle: steriod suspending solution",100 % of control
same,T/C,"dose: 125.0 mg/kg/injection, schedule: Q01DX010 (sc), vehicle: steriod suspending solution",100 % of control
same,T/C,"dose: 250.0 mg/kg/injection, schedule: Q01DX010 (sc), vehicle: steriod suspending solution",96 % of control and 100 % of control
same,T/C,"dose: 500.0 mg/kg/injection, schedule: Q01DX010 (sc), vehicle: steriod suspending solution",100 % of control
